Reference: US20230093861A1, “RAPAMYCIN ANALOGS AS MTOR INHIBITORS” (Revolution Medicines, Inc., priority 2017, published 2023)
Like-named read-outs stand apart in the source and are kept apart here.

Experiments:
P-Akt (S473) = test: Cell based AlphaLISA assay, inhibition of P-Akt (S473) (mTORC2 substrate phosphorylation) in MDA-MB-468 cells; settings: Homo sapiens, AlphaLISA, two to four hours at 37° C., read-out: pIC50 for Inhibition of mTORC1 and mTORC2 Substrate Phosphorylation, p-AKT 1/2/3 -(S473) (converted)
Protocol: (§1) Cell Based AlphaLISA Assays for Determining IC50 for Inhibition of P-Akt (S473), P-4E-BP1 (T37/46), and P-P70S6K (T389) in MDA-MB-468 Cells
(§2) mTOR Kinase Cellular Assay
(§3) To measure functional activity of mTORC1 and mTORC2 in cells the phosphorylation of 4EBP1 (Thr37/46) and P70S6K (Thr389), and AKT1/2/3 (Ser473) was monitored using AlphaLisa SureFire Ultra Kits (Perkin Elmer). […] Incubations were terminated by removal of the assay buffer and addition of lysis buffer provided with the assay kit. Samples were processed according to the manufacturer's instructions. The Alpha signal from the respective phosphoproteins was measured in duplicate using a microplate reader (Envision, Perkin-Elmer or Spectramax M5, Molecular Devices). Inhibitor concentration response curves were analyzed using normalized IC50 regression curve fitting with control based normalization.

P-4E-BP1 (T37/46) = test: Cell based AlphaLISA assay, inhibition of P-4E-BP1 (T37/46) (mTORC1 substrate phosphorylation) in MDA-MB-468 cells; settings: Homo sapiens, AlphaLISA, two to four hours at 37° C., read-out: pIC50 for Inhibition of mTORC1 and mTORC2 Substrate Phosphorylation, P-4E-BP1-(T37/46) (converted)
Protocol: as §1, §2, §3

P-P70S6K (T389) = test: Cell based AlphaLISA assay, inhibition of P-P70S6K (T389) (mTORC1 substrate phosphorylation) in MDA-MB-468 cells; settings: Homo sapiens, 4 h, AlphaLISA, two to four hours at 37° C., read-out: pIC50 for Inhibition of mTORC1 and mTORC2 Substrate Phosphorylation, P-P70S6K-(T389) (converted)
Protocol: as §1, §2, §3

SMILES | IC50 (P-Akt (S473); MDA-MB-468, 4 h) [nM] | IC50 (P-4E-BP1 (T37/46); MDA-MB-468, 4 h) [nM] | IC50 (P-P70S6K (T389)) [nM] | IC50 (P-Akt (S473); 4 h) [nM] | IC50 (P-4E-BP1 (T37/46); 4 h) [nM]
CO[C@H]1C[C@@H]2CC[C@@H](C)[C@@](O)(O2)C(=O)C(=O)N2CCCC[C@H]2C(=O)O[C@H]([C@H](C)C[C@@H]2CC[C@H](n3cc(COCCOCCOCCOCCOCCOCCOCCOCCOCCOCCC(=O)NCCCCn4nc(-c5cc6cc(O)ccc6[nH]5)c5c(N)ncnc54)nn3)[C@H](OC)C2)CC(=O)[C@H](C)/C=C(\C)[C@@H](O)[C@@H](OC)C(=O)[C@H](C)C[C@H](C)/C=C/C=C/C=C/1C [Example 196] | 31.6 to 1000 | 3.16 to 31.6 | 1 to 10 | – | –
CO[C@H]1C[C@@H]2CC[C@@H](C)[C@@](O)(O2)C(=O)C(=O)N2CCCC[C@H]2C(=O)O[C@H]([C@H](C)C[C@@H]2CC[C@@H](OCc3cccc(-c4cnc(N5CCN(S(=O)(=O)CCc6cn(CCOCCOCCC(=O)NCCCCn7nc(-c8ccc9oc(N)nc9c8)c8c(N)ncnc87)nn6)CC5)nc4)c3)[C@H](OC)C2)CC(=O)[C@H](C)/C=C(\C)[C@@H](O)[C@@H](OC)C(=O)[C@H](C)C[C@H](C)/C=C/C=C/C=C/1C [Example 28] | 3.16 to 31.6 | < 3.16 | < 1 | – | –
CO/N=C1/C[C@@H]([C@H](C)C[C@@H]2CC[C@H](n3cc(CCCC(=O)NCCOCCOCCOCCC(=O)NCCOCCOCCOCCC(=O)NCCCCn4nc(-c5cc6cc(O)ccc6[nH]5)c5c(N)ncnc54)nn3)[C@H](OC)C2)OC(=O)[C@@H]2CCCCN2C(=O)C(=O)[C@]2(O)O[C@@H](CC[C@H]2C)C[C@H](OC)/C(C)=C/C=C/C=C/[C@@H](C)C[C@@H](C)C(=O)[C@H](OC)[C@H](O)/C(C)=C/[C@H]1C [Example 172] | > 1000 | > 1000 | 10 to 1000 | – | –
COc1ccc(-c2ccc3ncc4c(c3c2)n(-c2ccc(N3CCN(C(=O)CCOCCOCCOCCOCCOCCOCCn5cc(CON=C6[C@H](C)C[C@H](C)/C=C/C=C/C=C(\C)[C@@H](OC)C[C@@H]7CC[C@@H](C)[C@@](O)(O7)C(=O)C(=O)N7CCCC[C@H]7C(=O)O[C@H]([C@H](C)C[C@@H]7CC[C@@H](O)[C@H](OC)C7)C[C@@H](O)[C@H](C)/C=C(\C)[C@@H](O)[C@H]6OC)nn5)CC3)c(C(F)(F)F)c2)c(=O)n4C)cn1 [Example 52] | 3.16 to 31.6 | 3.16 to 31.6 | < 1 | – | –
CO[C@H]1C[C@@H]2CC[C@@H](C)[C@@](O)(O2)C(=O)C(=O)N2CCCC[C@H]2C(=O)O[C@H]([C@H](C)C[C@@H]2CC[C@@H](OCCCCc3cn(CCOCCOCCOCCOCCOCCOCCOCCOCCC(=O)N(C)CCCCn4nc(-c5ccc6oc(N)nc6c5)c5c(N)ncnc54)nn3)[C@H](OC)C2)CC(=O)[C@H](C)/C=C(\C)[C@@H](O)[C@@H](OC)C(=O)[C@H](C)C[C@H](C)/C=C/C=C/C=C/1C [Example 83] | < 3.16 | < 3.16 | < 1 | – | –
CO[C@H]1C[C@@H]2CC[C@@H](C)[C@@](O)(O2)C(=O)C(=O)N2CCCC[C@H]2C(=O)O[C@H]([C@H](C)C[C@@H]2CC[C@@H](O)[C@H](OC)C2)C[C@@H](OC)[C@H](C)/C=C(\C)[C@@H](O)[C@@H](OC)/C(=N/OCc2cn(CCOCCOCCOCCOCCOCCOCCC(=O)NCCCCn3nc(-c4ccc5oc(N)nc5c4)c4c(N)ncnc43)nn2)[C@H](C)C[C@H](C)/C=C/C=C/C=C/1C [Example 14] | 31.6 to 1000 | 3.16 to 31.6 | 1 to 10 | – | –
CO[C@H]1C[C@@H]2CC[C@@H](C)[C@@](O)(O2)C(=O)C(=O)N2CCCC[C@H]2C(=O)O[C@H]([C@H](C)C[C@@H]2CC[C@H](n3cc(COC(=O)NCCOCCOCCOCCOCCC(=O)NCc4cnc(N5CCN(c6ncc(C(=O)NCCCCn7nc(-c8ccc9oc(N)nc9c8)c8c(N)ncnc87)cn6)CC5)nc4)nn3)[C@H](OC)C2)CC(=O)[C@H](C)/C=C(\C)[C@@H](O)[C@@H](OC)C(=O)[C@H](C)C[C@H](C)/C=C/C=C/C=C/1C [Example 185] | 3.16 to 31.6 | < 3.16 | < 1 | – | –
CO[C@H]1C[C@@H]2CC[C@@H](C)[C@@](O)(O2)C(=O)C(=O)N2CCCC[C@H]2C(=O)O[C@H]([C@H](C)C[C@@H]2CC[C@@H](OCc3cccc(-c4cnc(N5CCN(Cc6cn(CCOCCOCCOCCOCCOCCC(=O)NCCCCn7nc(-c8ccc9oc(N)nc9c8)c8c(N)ncnc87)nn6)C(CO)C5)nc4)c3)[C@H](OC)C2)CC(=O)[C@H](C)/C=C(\C)[C@@H](O)[C@@H](OC)C(=O)[C@H](C)C[C@H](C)/C=C/C=C/C=C/1C (stereo partly shown) [Example 23] | < 3.16 | < 3.16 | < 1 | – | –
CO[C@H]1C[C@@H]2CC[C@@H](C)[C@@](O)(O2)C(=O)C(=O)N2CCCC[C@H]2C(=O)O[C@H]([C@H](C)C[C@@H]2CC[C@@H](O)[C@H](OC)C2)C[C@@H](O)[C@H](C)/C=C(\C)[C@@H](O)[C@@H](OC)C(=NOCc2cn(-c3cnc(N4CCN(c5ncc(C(=O)NCCOCCOCCOCCC(=O)NCCCCn6nc(-c7ccc8oc(N)nc8c7)c7c(N)ncnc76)cn5)CC4)nc3)nn2)[C@H](C)C[C@H](C)/C=C/C=C/C=C/1C [Example 193] | > 1000 | 3.16 to 31.6 | < 1 | – | –
CO[C@H]1C[C@@H]2CC[C@@H](C)[C@@](O)(O2)C(=O)C(=O)N2CCCC[C@H]2C(=O)O[C@H]([C@H](C)C[C@@H]2CC[C@@H](OCCCCc3cn(CCOCCOCCOCCOCCOCCOCCOCCOCCC(=O)NCc4ccc(Cn5nc(-c6ccc7oc(N)nc7c6)c6c(N)ncnc65)cc4)nn3)[C@H](OC)C2)CC(=O)[C@H](C)/C=C(\C)[C@@H](O)[C@@H](OC)C(=O)[C@H](C)C[C@H](C)/C=C/C=C/C=C/1C [Example 85] | – | – | < 1 | 3.16 to 31.6 | < 3.16
CO[C@H]1C[C@@H]2CC[C@@H](C)[C@@](O)(O2)C(=O)C(=O)N2CCCC[C@H]2C(=O)O[C@H]([C@H](C)C[C@@H]2CC[C@H](n3nncc3-c3cccc(-c4cnc(N5CCN(Cc6cn(CCOCCOCCOCCC(=O)NCCCCn7nc(-c8ccc9oc(N)nc9c8)c8c(N)ncnc87)nn6)CC5)nc4)c3)[C@H](OC)C2)CC(=O)[C@H](C)/C=C(\C)[C@@H](O)[C@@H](OC)C(=O)[C@H](C)C[C@H](C)/C=C/C=C/C=C/1C [Example 31] | 3.16 to 31.6 | < 3.16 | < 1 | – | –
COc1ccc(-c2ccc3ncc4c(c3c2)n(-c2ccc(N3CCN(C(=O)CCOCCOCCOCCOCCOCCOCCn5cc(CCCCO[C@@H]6CC[C@@H](C[C@@H](C)[C@@H]7CC(=O)[C@H](C)/C=C(\C)[C@@H](O)[C@@H](OC)C(=O)[C@H](C)C[C@H](C)/C=C/C=C/C=C(\C)[C@@H](OC)C[C@@H]8CC[C@@H](C)[C@@](O)(O8)C(=O)C(=O)N8CCCC[C@H]8C(=O)O7)C[C@H]6OC)nn5)CC3)c(C(F)(F)F)c2)c(=O)n4C)cn1 [Example 44] | – | – | < 1 | < 3.16 | < 3.16
COc1cccc2cc(-c3nc([C@H]4CC[C@H](C(=O)NCCOCCOCCOCCOCCOCCOCCn5cc(CCCCO[C@@H]6CC[C@@H](C[C@@H](C)[C@@H]7CC(=O)[C@H](C)/C=C(\C)[C@@H](O)[C@@H](OC)C(=O)[C@H](C)C[C@H](C)/C=C/C=C/C=C(\C)[C@@H](OC)C[C@@H]8CC[C@@H](C)[C@@](O)(O8)C(=O)C(=O)N8CCCC[C@H]8C(=O)O7)C[C@H]6OC)nn5)CC4)n4ncnc(N)c34)[nH]c12 [Example 106] | 3.16 to 31.6 | < 3.16 | < 1 | – | –
CO[C@H]1C[C@@H]2CC[C@@H](C)[C@@](O)(O2)C(=O)C(=O)N2CCCC[C@H]2C(=O)O[C@H]([C@H](C)C[C@@H]2CC[C@@H](OCc3cccc(-c4cnc(N5CCN(Cc6cn(CCOCCOCCOCCC(=O)NCCCCn7nc(-c8ccc9oc(N)nc9c8)c8c(N)ncnc87)nn6)CC5)nc4)c3)[C@H](OC)C2)CC(=O)[C@H](C)/C=C(\C)[C@@H](O)[C@@H](OC)C(=O)[C@H](C)C[C@H](C)/C=C/C=C/C=C/1C [Example 22] | 3.16 to 31.6 | < 3.16 | < 1 | – | –
CO[C@H]1C[C@@H]2CC[C@@H](C)[C@@](O)(O2)C(=O)C(=O)N2CCCC[C@H]2C(=O)O[C@H]([C@H](C)C[C@@H]2CC[C@@H](OC(=O)NCc3cn(CCOCCOCCOCCOCCOCCOCCC(=O)NCCCCn4nc(-c5ccc6oc(N)nc6c5)c5c(N)ncnc54)nn3)[C@H](OC)C2)CC(=O)[C@H](C)/C=C(\C)[C@@H](O)[C@@H](OC)C(=O)[C@H](C)C[C@H](C)/C=C/C=C/C=C/1C [Example 60] | 3.16 to 31.6 | < 3.16 | < 1 | – | –
CO[C@@H]1C[C@H](C[C@@H](C)[C@@H]2CC(=O)[C@H](C)/C=C(\C)[C@@H](O)[C@@H](OC)C(=O)[C@H](C)C[C@H](C)/C=C/C=C/C=C(\C)[C@@H](c3ccco3)C[C@@H]3CC[C@@H](C)[C@@](O)(O3)C(=O)C(=O)N3CCCC[C@H]3C(=O)O2)CC[C@H]1OCCCCc1cn(CCOCCOCCOCCOCCOCCOCCC(=O)NCCCCn2nc(-c3ccc4oc(N)nc4c3)c3c(N)ncnc32)nn1 (stereo in doubt) [Example 19] | – | – | < 1 | – | –
